# PubChem BioAssay AID504479 (NMMLSC, 2011)
# Active and inactive are the calls of the source.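 How the source made its calls: active means GFP ratio vs DMSO below 0.65 in a strain, using the primary screen cutoff set for that strain's protein target; inactive means the rest.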
# Assays:
# Experiment in all cases: GFP reporter expression in TORC1-bypass yeast, mechanism study for yeast TOR pathway modulator project, S. cerevisiae, TORC1 bypass vs wild-type strains (AID 504479)
# Details in all cases: fluorescence ratio vs DMSO, at 10 µM
# YKL103C = tested on: YKL103C
# YNL142W = tested on: YNL142W
# YBR084C-A = tested on: YBR084C-A
# YCL025C = tested on: YCL025C
# YCR005C = tested on: YCR005C
# BY4741 = tested on: BY4741
# [1] = LAP4-GFP in TORC1 bypass strain, stronger effect = higher value
# [2] = MEP2-GFP in TORC1 bypass strain, stronger effect = higher value
# [3] = RPL19A-GFP in TORC1 bypass strain, stronger effect = lower value
# [4] = AGP1-GFP in TORC1 bypass strain, stronger effect = higher value
# [5] = CIT2-GFP in TORC1 bypass strain, stronger effect = higher value
Compound,GFP ratio vs DMSO (YKL103C; [1]),GFP ratio vs DMSO (YKL103C),GFP ratio vs DMSO (YNL142W; [2]),GFP ratio vs DMSO (YNL142W),GFP ratio vs DMSO (YBR084C-A; [3]),GFP ratio vs DMSO (YBR084C-A),GFP ratio vs DMSO (YCL025C; [4]),GFP ratio vs DMSO (YCL025C),GFP ratio vs DMSO (YCR005C; [5]),GFP ratio vs DMSO (YCR005C),GFP ratio vs DMSO (BY4741)
CSC1=NS(=O)(=O)c2c(C)nn(C)c2S1,1.06,1.36 (inactive),0.862,0.972 (inactive),0.9,0.887 (inactive),0.961,1.01 (inactive),0.826,0.78 (inactive),0.833 (inactive)
CCc1ccc(OCC(=O)NNC(=S)NC(=O)C2CC2)c(Br)c1,1.3,2.76,1.13,1.23 (inactive),1.03,1.15 (inactive),0.819,1.1 (inactive),0.796,0.882 (inactive),1.41 (inactive)
COc1ccc(/C=C/C(=O)NC(=S)NNC(=O)c2cnccn2)cc1,1.18,1.51,1.03,1.14 (inactive),0.981,0.94 (inactive),0.694,0.807 (inactive),0.87,1.03 (inactive),0.962 (inactive)
Clc1ccc(N=c2ssnc2Cl)cc1,1.29,1.64,1.08,1.04 (inactive),1.08,1.02 (inactive),0.884,0.946 (inactive),1.02,1.25 (inactive),1.09 (inactive)
Cc1cc(C(=O)Nc2nc(-c3ccccn3)cs2)ccc1[N+](=O)[O-],0.998,1.02 (inactive),1.04,0.972 (inactive),0.905,0.985 (inactive),1.03,1.05 (inactive),0.839,0.907 (inactive),0.896 (inactive)
